# Reference: US20080039515A1, “Arylpyrazoles And Methods Of Using Same For Control Of Insect Pests That Bore Into Trees” (The Texas A&M University System, priority 2004, published 2008)
# System: Ips engraver beetles
# Test: Trial 2 single-tree protection study: Ips attack, tree mortality and gallery construction on standing loblolly pine
# Format: in vivo
# Parameters: Length of Egg Galleries Total: unit not given here
# Conditions: for trees with early signs of fading crowns (number of 6 trees): 24 days after initial pheromone deployment; for Length of Egg Galleries Total / Length of Egg Galleries With Brood / Length of Egg Galleries With Brood % of Total / Length of Egg Galleries Without Brood / Length of Egg Galleries Without Brood % of Total / Number of Egg Galleries Total / Number of Egg Galleries With Brood % of Total / Number of Egg Galleries With Brood No. / Number of Egg Galleries Without Brood % of Total / Number of Egg Galleries Without Brood No. / Nuptial Chambers With Egg Galleries % of Total / Nuptial Chambers With Egg Galleries No. / Nuptial Chambers Without Egg Galleries % of Total / Nuptial Chambers Without Egg Galleries No. / Total Nuptial Chambers: logs cut after tree mortality or end of trial; for Mean # of Ips caught/trap / Number of Attacks/0.3 m bole section at 3 m after 24 days: Ips: standing loblolly pine; for Number of Attacks/0.3 m bole section at 3 m after 24 days: Ips: 24 days after pheromone deployment
# Experimental: Study Sites: Two 20-year-old, recently thinned loblolly pine plantations were selected in Texas. Trees in one plantation were injected for use in a bolt study (Trial 1). Trees in ½ acre section of the second plantation were injected as part of a single-tree protection study (Trial 2). A staging area also was set up in the second plantation where bolts from the first plantation were exposed to bark beetles and wood borers.
# Population Monitoring: A clear panel of acetate (10 cm wide by 25 cm long) was attached to the center of each bolt after deployment of bolts or 2 m high on standing trees after deployment of pheromone baits to monitor arrival of bark beetles. The top surface of each panel was coated entirely with Stikem Special® trapping compound (Michel and Pelton, Emeryville, Calif.). The traps were left in place for two weeks.
# Trial 2: Loblolly pine, 15-20 cm (=6-9 inch) DBH, also were selected in March of the study year in a recently thinned 20-year-old pine stand in east Texas. Each treatment (the same as those used in Trial 1) was injected into four cardinal points about 0.3 m above the ground on each of 6 trees in April (16th-23rd) using the Arborjet Tree IV™ system.
# After 5 weeks post-injection (May 28), frills were cut with a hatchet into the sapwood between the injection points near the base of the tree. A cellulose. sponge was inserted into each cut and loaded with I0 ml of a 4:1 mix of sodium N-methyldithiocarbamate (MS) (Woodfume®; Osmose, Inc., Buffalo, N.Y.) plus dimethyl sulfoxide (DMSO) (Aldrich Chemical) (Roton 1987, Strom et al. 2004). […] The intent was to stress the tree and make it susceptible to attack by bark beetles without killing it. Pheromone packets containing racemic ipsdienol+lanerione, ipsenol or cis-verbenol were attached (June 7) atop 3 m stakes evenly spaced in between and around the study trees to encourage attack by the three Ips engraver species. […] The baits were changed every 4 weeks.
# Trial 2. […] All visible Ips attacks and cerambycid egg niches were counted within the marked area. The number of trees with fading crowns also was recorded. Thereafter, the trees were evaluated weekly for crown fading. When mortality did occur, the trees were felled and two bolts taken and evaluated for attack success and gallery length as described in Trial 1. […] Treatment efficacy was determined by comparing tree survival, beetle attacks and egg gallery length on treated and untreated bolts. As before, data were transformed and analyzed by GLM and the Fisher's Protected LSD test using the Statview statistical program.
# [1] = After 24 days from pheromone bait deployment
smiles,measurement,setting,value
"N#Cc1nn(-c2c(Cl)cc(C(F)(F)F)cc2Cl)c(N)c1[S+]([O-])C(F)(F)F (stereo not drawn) [Fip, 5-amino-3-cyano-1-(2,6-dichloro-4-trifluoromethylphenyl)-4-trifluoromethylsulfinylpyrazole]",trees with early signs of fading crowns (number of 6 trees),,None
same,Pct of Trees w/Fading Crowns,[1],0.0 Pct
same,Pct of Trees w/Fading Crowns,After 32 days,0.0 Pct
same,Pct of Trees w/Fading Crowns,After 39 days,0.0 Pct
same,Pct of Trees w/Fading Crowns,After 46 days,0.0 Pct
same,Pct of Trees w/Fading Crowns,After 52 days,0.0 Pct
same,Pct of Trees w/Fading Crowns,After 59 days,0.0 Pct
same,Pct of Trees w/Fading Crowns,After 66 days,0.0 Pct
same,Length of Egg Galleries Total,bolt height 3 m,6.0
same,Length of Egg Galleries With Brood,bolt height 3 m,2.5 cm
same,Length of Egg Galleries With Brood % of Total,bolt height 3 m,41.7%
same,Length of Egg Galleries Without Brood,bolt height 3 m,3.5 cm
same,Length of Egg Galleries Without Brood % of Total,bolt height 3 m,58.3%
same,Number of Egg Galleries Total,bolt height 3 m,1.2
same,Number of Egg Galleries With Brood % of Total,bolt height 3 m,14.3%
same,Number of Egg Galleries With Brood No.,bolt height 3 m,0.2
same,Number of Egg Galleries Without Brood % of Total,bolt height 3 m,85.7%
same,Number of Egg Galleries Without Brood No.,bolt height 3 m,1.0
same,Nuptial Chambers With Egg Galleries % of Total,bolt height 3 m,18.9%
same,Nuptial Chambers With Egg Galleries No.,bolt height 3 m,1.2
same,Nuptial Chambers Without Egg Galleries % of Total,bolt height 3 m,81.1%
same,Nuptial Chambers Without Egg Galleries No.,bolt height 3 m,5.0
same,Total Nuptial Chambers,bolt height 3 m,6.2
same,Length of Egg Galleries Total,bolt height 8 m,22.7
same,Length of Egg Galleries With Brood,bolt height 8 m,2.5 cm
same,Length of Egg Galleries With Brood % of Total,bolt height 8 m,11.0%
same,Length of Egg Galleries Without Brood,bolt height 8 m,20.2 cm
same,Length of Egg Galleries Without Brood % of Total,bolt height 8 m,89.0%
same,Number of Egg Galleries Total,bolt height 8 m,7.7
same,Number of Egg Galleries With Brood % of Total,bolt height 8 m,6.5%
same,Number of Egg Galleries With Brood No.,bolt height 8 m,0.5
same,Number of Egg Galleries Without Brood % of Total,bolt height 8 m,93.5%
same,Number of Egg Galleries Without Brood No.,bolt height 8 m,7.2
same,Nuptial Chambers With Egg Galleries % of Total,bolt height 8 m,66.7%
same,Nuptial Chambers With Egg Galleries No.,bolt height 8 m,3.0
same,Nuptial Chambers Without Egg Galleries % of Total,bolt height 8 m,33.3%
same,Nuptial Chambers Without Egg Galleries No.,bolt height 8 m,1.5
same,Total Nuptial Chambers,bolt height 8 m,4.5
same,Mean # of Ips caught/trap,,5.2
same,Number of Attacks/0.3 m bole section at 3 m after 24 days: Ips,,1.3
same,tree survival,"standing trees, end of trial (66 days)",survived
O=[N+]([O-])NC1=NCCN1Cc1ccc(Cl)nc1 [Imid],trees with early signs of fading crowns (number of 6 trees),,3 of 6
same,Pct of Trees w/Fading Crowns,[1],50.0 Pct
same,Pct of Trees w/Fading Crowns,After 32 days,83.3 Pct
same,Pct of Trees w/Fading Crowns,After 39 days,83.3 Pct
same,Pct of Trees w/Fading Crowns,After 46 days,83.3 Pct
same,Pct of Trees w/Fading Crowns,After 52 days,100.0 Pct
same,Pct of Trees w/Fading Crowns,After 59 days,100.0 Pct
same,Pct of Trees w/Fading Crowns,After 66 days,100.0 Pct
same,Length of Egg Galleries Total,bolt height 3 m,301.5
same,Length of Egg Galleries With Brood,bolt height 3 m,121.7 cm
same,Length of Egg Galleries With Brood % of Total,bolt height 3 m,40.4%
same,Length of Egg Galleries Without Brood,bolt height 3 m,179.8 cm
same,Length of Egg Galleries Without Brood % of Total,bolt height 3 m,59.6%
same,Number of Egg Galleries Total,bolt height 3 m,38.2
same,Number of Egg Galleries With Brood % of Total,bolt height 3 m,28.8%
same,Number of Egg Galleries With Brood No.,bolt height 3 m,11.0
same,Number of Egg Galleries Without Brood % of Total,bolt height 3 m,71.2%
same,Number of Egg Galleries Without Brood No.,bolt height 3 m,27.2
same,Nuptial Chambers With Egg Galleries % of Total,bolt height 3 m,98.0%
same,Nuptial Chambers With Egg Galleries No.,bolt height 3 m,8.0
same,Nuptial Chambers Without Egg Galleries % of Total,bolt height 3 m,2.0%
same,Nuptial Chambers Without Egg Galleries No.,bolt height 3 m,0.2
same,Total Nuptial Chambers,bolt height 3 m,8.2
same,Length of Egg Galleries Total,bolt height 8 m,217.5
same,Length of Egg Galleries With Brood,bolt height 8 m,115.5 cm
same,Length of Egg Galleries With Brood % of Total,bolt height 8 m,53.1%
same,Length of Egg Galleries Without Brood,bolt height 8 m,102.0 cm
same,Length of Egg Galleries Without Brood % of Total,bolt height 8 m,46.9%
same,Number of Egg Galleries Total,bolt height 8 m,33.2
same,Number of Egg Galleries With Brood % of Total,bolt height 8 m,42.7%
same,Number of Egg Galleries Without Brood % of Total,bolt height 8 m,57.3%
same,Number of Egg Galleries Without Brood No.,bolt height 8 m,19.0
same,Nuptial Chambers With Egg Galleries % of Total,bolt height 8 m,78.7%
same,Nuptial Chambers With Egg Galleries No.,bolt height 8 m,9.8
same,Nuptial Chambers Without Egg Galleries % of Total,bolt height 8 m,21.3%
same,Nuptial Chambers Without Egg Galleries No.,bolt height 8 m,2.7
same,Total Nuptial Chambers,bolt height 8 m,12.5
same,Mean # of Ips caught/trap,,8.5
same,Number of Attacks/0.3 m bole section at 3 m after 24 days: Ips,,12.7
same,trees died due to bark beetle attack,"standing trees, after 66 days",100%
